Experiments:
Type in all cases: biochemical
TAFI purifié [1] = molecular target: T1, TAFI purifié (Homo sapiens, UniProt Q96IY4); experiment: Colorimetric TAFI activity assay on purified TAFI with different substrates (thrombin/thrombomodulin activation, carboxypeptidase A revelation); conditions: substrate 5 mM; 6,5 µg/ml TAFI purifié in hépès buffer; read at 320-350 nm
T1 sequence (Q96IY4 115-423): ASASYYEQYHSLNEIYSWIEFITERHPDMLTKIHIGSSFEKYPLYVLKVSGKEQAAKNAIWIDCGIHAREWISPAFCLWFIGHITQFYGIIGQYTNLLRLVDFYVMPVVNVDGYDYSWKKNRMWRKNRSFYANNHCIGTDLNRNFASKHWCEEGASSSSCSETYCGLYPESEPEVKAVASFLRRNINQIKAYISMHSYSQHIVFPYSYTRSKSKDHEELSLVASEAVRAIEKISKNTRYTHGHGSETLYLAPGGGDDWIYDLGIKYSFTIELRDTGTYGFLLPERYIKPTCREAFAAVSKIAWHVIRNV

[2] = system: carboxypeptidase B pancréatique porcine; experiment: Decoloration of single-amino-acid substrate AAFR by pancreatic carboxypeptidase B; conditions: CPB porcine 5,2 mol/l in hépès buffer; AAFR 5 mM (0,25 mM); 382 nm
From the text: (§1) L'exemple ci-après vise à démontrer la nécessité d'utiliser la méthode et les composés de formule (I) de l'invention pour doser spécifiquement l'activité des CPN ou U, en particulier le TAFI, par rapport à d'autres carboxypeptidases basiques. 1. Le dosage est dans ce cas réalisé avec un substrat de la famille de composés décrites par Mock dans (14). Ce substrat est constitué d'un seul acide aminé porteur du radical chromophore anizylazoformyl (portion CH3OC6H4-N = N-CO-). L'acide aminé choisi est l'arginine, un acide aminé basique normalement hydrolysé par les carboxypeptidases B (1). Ce substrat est dénommé ci-après AAFR (AnizylAzoFormyArginine) ou MxAFR (4-MethoxyphenylAzoformylarginine). Ce substrat (0,25 mM) est mis en présence soit d'un échantillon de TAFI plasmatique, soit d'une solution de carboxypeptidase B pancréatique porcine (Sigma - Réf. C9584) à 5,2 mol/l. La diminution de coloration de chacun des deux échantillons est suivie au spectrophotomètre. Chacun des échantillons est traité selon le protocole suivant : • a) échantillon de départ : • TAFI plasmatique (présent dans un pool normal de plasmas - dilué au 1/20) ou • Carboxypeptidase B pancréatique porcine 5,2 mol/l (dans tampon hépès) • b) activation avec complexe thrombine-thrombomoduline-CaCl2 (voir exemple 2) pour l'échantillon de TAFI plasmatique. • c) addition de AAFR à 5 mM. • d) lecture DO à 382 nm.

TAFI plasmatique = molecular target: T2, TAFI plasmatique (Homo sapiens, UniProt Q96IY4); experiment: Decoloration of single-amino-acid substrate AAFR by activated plasma TAFI
T2 construct: from tissue; host or cells: normal plasma pool, diluted 1/20
T2 sequence (Q96IY4 115-423): T1 sequence (Q96IY4 115-423)
From the text: as §1

TAFI purifié [3] = molecular target: T1, TAFI purifié; experiment: Specificity test on purified TAFI solution: MxAFR versus MxPAFFK; conditions: for DO de départ / DO finale / Delta DO: TAFI purifié 18 µg/ml, activated, MxAFR 27 mM without CPA, MxPAFFK with CPA added, 382 nm; for hydrolyse par le TAFI activé: conclusion in words, purified TAFI 18 µg/ml
From the text: 2. La méthode de l'invention est ensuite appliquée sur une solution de TAFI purifiée, soit avec un substrat de formule (I) (MxPAFFK), soit avec le MxAFR pour vérifier que le TAFIa hydrolyse néanmoins un composé de formule (I). L'activation de la coagulation est déclenchée par le complexe thrombine-thrombomoduline-CaCl2 (voir protocole exemple 2). La diminution de coloration de chacun des deux échantillons est suivie au spectrophotomètre. • a) échantillons de départ : solution de TAFI purifié à18 µg/ml (dilué dans tampon hépès). • b) activation de la coagulation. • c) addition de MxAFR 27 mM ou MxPAFFK (témoin) concentration du MxAFFK. • d) addition de CPA dans l'échantillon contenant le MxPAFFK. • e) lecture DO à 382 nm.

TAFI purifié [4] = molecular target: T1, TAFI purifié; experiment: Calibration range, thrombin/thrombomodulin method, TAFI-deficient plasma spiked with purified TAFI; conditions: substrate 5 mM
Description: L'échantillon de plasma testé est divisé en deux aliquotes, l'un étant additionné de PIC (Calbiochem - Réf. 217359), l'autre de tampon hépès. Les deux aliquotes sont ensuite traités de manière identique selon le principe suivant :
• 150 µl de plasma dilué au 1/20 en tampon hépès (ou TAFI purifié à 13 µg/ml en tampon hépès. • 10 µl PIC ou H2O • 5 minutes à température ambiante • 150 µl tampon activateur de la coagulation • 10 minutes à température ambiante • 100 µl PPACK + 100 µl MxPAFFR (substrat) (5 mM)
• 30 minutes à température ambiante • 100 µl HCl 1M + 100 µl NaOH 1M
• Dilution au 1/3 en tampon hépès • Lecture de la DO à 382 nm • 25 µl Carboxypeptidase A • Lecture de la DO à 382 nm sur 1 minute
La figure 3 ci-après représente une courbe d'étalonnage établie à partir d'un plasma déficient en TAFI surchargé avec du TAFI purifié pour obtenir une gamme de concentration en TAFI allant de 0 à 26 µg/ml. Le composé de formule I utilisé est le MxPAAFR à une concentration de 5 mM. Les Δ DO mesurés selon la méthode de l'invention sont reportés dans le tableau III suivant : TABLEAU III : […]

[5] = TAFIa du plasma (normal plasma pool diluted 1/20, thrombine-thrombomoduline-CaCl2 activation), AAFR 5 mM (0,25 mM), 382 nm

| DO de départ (TAFI purifié [1]) | DO finale (TAFI purifié [1]) | Delta DO (TAFI purifié [1]) | DO de départ (TAFI purifié [3]) | DO finale (TAFI purifié [3]) | Delta DO (TAFI purifié [3]) | hydrolyse par le TAFI activé (TAFI purifié [3]) | Structure (SMILES) | further results |
| --- | --- | --- | --- | --- | --- | --- | --- | --- |
| 0.318 | 0.089 | 0.229 |  |  |  |  | Cc1cccc(N=NC(=O)N[C@@H](Cc2ccccc2)C(=O)N[C@@H](CCCNC(=N)N)C(=O)O)c1C [2,3 DMPAFFR, 2,3-dimethylphenylazoformylphenylalanylarginine] |  |
| 1.004 | 0.087 | 0.917 |  |  |  |  | Cc1ccc(N=NC(=O)N[C@@H](Cc2ccccc2)C(=O)N[C@@H](CCCNC(=N)N)C(=O)O)c(C)c1 [2,4 DMPAFFR, 2,4-dimethylphenylazoformylphenylalanylarginine] |  |
| 0.973 | 0.131 | 0.842 |  |  |  |  | Cc1ccc(C)c(N=NC(=O)N[C@@H](Cc2ccccc2)C(=O)N[C@@H](CCCNC(=N)N)C(=O)O)c1 [2,5 DMPAFFR, 2,5-dimethylphenylazoformylphenylalanylarginine] |  |
|  |  |  | 1.356 | 1.300 | 0.056 | n'hydrolyse pas | COc1ccc(N=NC(=O)N[C@@H](CCCNC(=N)N)C(=O)O)cc1 [AAFR, 4-MethoxyphenylAzoformylarginine] | Delta DO [2]: 0.608; DO de départ (TAFI plasmatique; [5]): 1.730; DO finale (TAFI plasmatique; [5]): 1.681; Delta DO (TAFI plasmatique; [5]): 0.049; hydrolyse par le TAFI activé (TAFI plasmatique; conclusion in words, plasma TAFIa): n'hydrolyse pas |
|  |  |  |  |  |  |  | COc1ccc(N=NC(=O)N[C@@H](Cc2ccccc2)C(=O)N[C@@H](CCCNC(=N)N)C(=O)O)cc1 [MxPAAFR, 4-methoxyphenylazoformylphenylalanylarginine] | Δ DO mesuré (TAFI purifié [4]; concentration en TAFIa 0 µg/ml): 0.168; Δ DO mesuré (TAFI purifié [4]; concentration en TAFIa 1.63 µg/ml): 0.217; Δ DO mesuré (TAFI purifié [4]; concentration en TAFIa 3.25 µg/ml): 0.273; Δ DO mesuré (TAFI purifié [4]; concentration en TAFIa 6.5 µg/ml): 0.399; Δ DO mesuré (TAFI purifié [4]; concentration en TAFIa 13 µg/ml): 0.624; Δ DO mesuré (TAFI purifié [4]; concentration en TAFIa 26 µg/ml): 0.995 |
| 0.973 | 0.131 | 0.842 | 1.397 | 0.849 | 0.548 | actif | COc1ccc(N=NC(=O)N[C@@H](Cc2ccccc2)C(=O)N[C@@H](CCCCN)C(=O)O)cc1 [MxPAFFK, 4-methoxyphenylazoformylphenylalanyllysine] |  |

Reference: EP1406920B1, “NOVEL CHROMOGENIC SUBSTANCES AND USE THEREOF FOR THE DETERMINATION OF CARBOXYPEPTIDASE ACTIVITIES” (Diagnostica Stago, priority 2001, dated 2003)
